Measurements taken from patent US20260138985A1, “Azepino-Indoles for the Treatment of Neurological and Psychiatric Disorders” (Terran Biosciences Inc., priority 2021, published 2026).

How the values were obtained:
5-HT2B receptor = biological target: T1, 5-HT2B receptor (Homo sapiens, UniProt P41595); test: Calcium mobilization assay, agonist format, 5-HT2B receptor; type: cell-based; settings: read-out: 5-HT2B agonist Efficacy @ 5 µM
T1 construct: host or cells: unnamed cell lines
Procedure: (§1) Protocol—in vitro testing at select 5-hydroxytryptamine (5-HT; serotonin) receptors was conducted.
(§2) • 1. Cell lines were expanded from freezer stocks according to standard procedures. • 2. Cells were seeded in a total volume of 20 μL into black-walled, clear-bottom, Poly-D-lysine coated 384-well microplates and incubated at 37° C. for the appropriate time prior to testing.
(§3) • 1. Assays were performed in 1×Dye Loading Buffer consisting of 1× Dye, 1× Additive A and 2.5 mM Probenecid in HBSS/20 mM Hepes. Probenicid was prepared fresh. • 2. Cells were loaded with dye prior to testing. Media was aspirated from cells and replaced with 20 μL Dye Loading Buffer. • 3. Cells were incubated for 30-60 minutes at 37° C.
(§4) • 1. For agonist determination, cells were incubated with sample to induce response. • 2. After dye loading, cells were removed from the incubator and 10 μL HBSS/20 mM Hepes was added. 3× vehicle was included in the buffer when performing agonist dose curves to define • the EC80 for subsequent antagonist assays. Cells were incubated for 30 minutes at room temperature in the dark to equilibrate plate temperature. • 3. Intermediate dilution of sample stocks was performed to generate 4× sample in assay buffer. • 4. Compound agonist activity was measured on a FLIPR Tetra (MDS). Calcium mobilization was monitored for 2 minutes and 10 μL 4× sample in HBSS/20 mM Hepes was added to the cells 5 seconds into the assay.
(§5) • 1. Compound activity was analyzed using CBIS data analysis suite (ChemInnovation, CA). • 2. For agonist mode assays, percentage activity is calculated using the following formula: % Activity=100%×(mean RFU of test sample−mean RFU of vehicle control)/(mean MAX RFU control ligand −mean RFU of vehicle control). • 3. For positive allosteric mode assays, percentage modulation was calculated using the following formula: % Modulation=100%×((mean RFU of test sample−mean RFU of EC20 control)/(mean RFU of MAX control ligand −mean RFU of EC20 control)). • 4. For antagonist and negative allosteric modulation mode assays, percentage inhibition is calculated using the following formula: % Inhibition=100%×(1−(mean RFU of test sample−mean RFU of vehicle control)/(mean RFU of EC80 control−mean RFU of vehicle control)).
(§6) As discussed above, agonism, or partial agonism, of the 5-HT2A receptor (also known as positive allosteric modulation, or 5-HT2A modulation) is useful for the treatment of neurological and psychiatric disorders. For example, 5-HT2A agonism has been correlated with the promotion of neural plasticity (Ly et al., 2018). Agonism of the 5-HT2B receptor has been associated with unwanted cardiac valvulopathy side-effects, a form of cardio-toxicity (Rothman et al., Circulation. 2000, 102, 2836-2841; Fitzgerald et al., Molecular Pharmacology 2000, 57, 75-81). […] Antagonists of the 5-HT2C receptor are also useful for the treatment of neurological and psychiatric disorders (Kennett et al., Neuropharmacology 1997, 36, 609-620).

5-HT2A receptor = biological target: T2, 5-HT2A receptor (Homo sapiens, UniProt P28223); test: Calcium mobilization assay, agonist format, 5-HT2A receptor; type: cell-based; settings: read-out: 5-HT2A agonist Efficacy @ 10 µM
T2 construct: host or cells: unnamed cell lines
Procedure: as §1, §2, §3, §4, §5, §6

5-HT2C receptor = biological target: T3, 5-HT2C receptor (Homo sapiens, UniProt P28335); test: Calcium mobilization assay, antagonist format, 5-HT2C receptor; type: cell-based; design: dose or concentration left out as unconfirmed
T3 construct: host or cells: unnamed cell lines
T3 sequence (P28335 33-458): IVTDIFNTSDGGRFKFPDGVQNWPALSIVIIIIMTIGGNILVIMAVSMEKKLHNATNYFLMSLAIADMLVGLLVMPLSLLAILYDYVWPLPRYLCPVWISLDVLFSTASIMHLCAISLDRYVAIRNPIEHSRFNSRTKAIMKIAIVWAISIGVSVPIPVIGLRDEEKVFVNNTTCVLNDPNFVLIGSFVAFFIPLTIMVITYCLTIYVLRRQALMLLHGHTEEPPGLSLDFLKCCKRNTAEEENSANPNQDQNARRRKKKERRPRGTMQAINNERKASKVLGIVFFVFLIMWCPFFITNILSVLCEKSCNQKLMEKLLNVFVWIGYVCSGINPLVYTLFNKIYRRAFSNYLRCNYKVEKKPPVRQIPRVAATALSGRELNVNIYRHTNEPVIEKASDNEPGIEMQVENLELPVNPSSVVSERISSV
Procedure: as §1, §2, §3
• 1. For antagonist determination, cells were pre-incubated with sample followed by agonist challenge at the EC80 concentration. • 2. Intermediate dilution of sample stocks was performed to generate 3× sample in assay buffer. • 3. After dye loading, cells were removed from the incubator and […] 3× sample was added. Cells were incubated for 30 minutes at room temperature in the dark to equilibrate plate temperature. Vehicle concentration was 1%. • 4. Compound antagonist activity was measured on a FLIPR Tetra (MDS). Calcium mobilization was monitored for 2 minutes and 10 μL EC80 agonist in HBSS/20 mM Hepes was added to the cells 5 seconds into the assay.
as §5, §6

[1] = Metabolic stability in human liver microsomes; type: in vitro ADME; settings: for difference in half-life and intrinsic clearance versus comparator: Compound 163 vs 8-methoxy-1,2,3,4,5,6-hexahydroazepino[4,5-b]indole, Compounds 1, 2 and 3 vs TBG; for half-life at 0.2 μM: pH 7.4, half life; for half-life at 0.2 μM / microsomal CLint at 0.2 μM / CLint scaled at 0.2 μM: values marked * average of two experiments; for microsomal CLint at 0.2 μM: pH 7.4, intrinsic clearance, read-out: CLint(mic); for CLint scaled at 0.2 μM: pH 7.4, scaled from CLint(mic)
Procedure: Microsomal Assay: Human liver microsomes (20 mg/mL) are obtained from Xenotech, LLC (Lenexa, KS). β-nicotinamide adenine dinucleotide phosphate, reduced form (NADPH), magnesium chloride (MgCl2), and dimethyl sulfoxide (DMSO) are purchased from Sigma-Aldrich.
Determination of Metabolic Stability: 7.5 mM stock solutions of test compounds of the above structural formula (e.g., of an embodiment or aspect of embodiment thereof described herein), or pharmaceutically acceptable salt thereof, are prepared in DMSO. […] The diluted microsomes are added to wells of a 96-well deep-well polypropylene plate in triplicate. […] Reactions are initiated by addition of pre-warmed NADPH solution. The final reaction volume is 0.5 mL and contains 4.0 mg/mL human liver microsomes, 0.2 μM test compound, and 2 mM NADPH in 0.1 M potassium phosphate buffer, pH 7.4, and 3 mM MgCl2. The reaction mixtures are incubated at 37° C., and […] aliquots are removed at 0, 5, 10, 20, and 30 minutes and added to shallow-well 96-well plates which contain […] of ice-cold ACN (acetonitrile) with internal standard to stop the reactions. The plates are stored at 4° C. for 20 minutes after which […] of water is added to the wells of the plate before centrifugation to pellet precipitated proteins. Supernatants are transferred to another 96-well plate and analyzed for amounts of parent remaining by LC-MS/MS using an Applied Bio-systems API 4000 mass spectrometer. The same procedure is followed for the non-deuterated counterpart of the compound and the positive control, 7-ethoxycoumarin (1 μM). Testing is done in triplicate.
Data analysis: The in vitro Ti/s for test compounds are calculated from the slopes of the linear regression of % parent remaining (In) vs incubation time relationship.
[formula] • k=−[slope of linear regression of % parent remaining (In) vs incubation time] • The apparent intrinsic clearance is calculated using the following equation: […]
Data analysis is performed using Microsoft Excel Software.

T1 sequence (P41595 whole entry): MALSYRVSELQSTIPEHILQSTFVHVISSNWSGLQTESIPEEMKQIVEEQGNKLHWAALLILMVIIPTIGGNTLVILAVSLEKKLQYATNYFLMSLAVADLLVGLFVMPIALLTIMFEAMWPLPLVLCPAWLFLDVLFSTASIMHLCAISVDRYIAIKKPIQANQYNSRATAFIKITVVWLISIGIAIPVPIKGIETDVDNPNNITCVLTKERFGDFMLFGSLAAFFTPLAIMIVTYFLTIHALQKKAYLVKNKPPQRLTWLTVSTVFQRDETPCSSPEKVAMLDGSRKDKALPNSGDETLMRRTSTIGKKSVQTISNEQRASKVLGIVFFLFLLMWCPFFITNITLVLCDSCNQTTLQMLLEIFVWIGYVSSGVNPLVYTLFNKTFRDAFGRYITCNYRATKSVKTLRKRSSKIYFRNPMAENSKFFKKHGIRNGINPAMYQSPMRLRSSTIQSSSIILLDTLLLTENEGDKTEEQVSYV
T2 sequence (P28223 whole entry): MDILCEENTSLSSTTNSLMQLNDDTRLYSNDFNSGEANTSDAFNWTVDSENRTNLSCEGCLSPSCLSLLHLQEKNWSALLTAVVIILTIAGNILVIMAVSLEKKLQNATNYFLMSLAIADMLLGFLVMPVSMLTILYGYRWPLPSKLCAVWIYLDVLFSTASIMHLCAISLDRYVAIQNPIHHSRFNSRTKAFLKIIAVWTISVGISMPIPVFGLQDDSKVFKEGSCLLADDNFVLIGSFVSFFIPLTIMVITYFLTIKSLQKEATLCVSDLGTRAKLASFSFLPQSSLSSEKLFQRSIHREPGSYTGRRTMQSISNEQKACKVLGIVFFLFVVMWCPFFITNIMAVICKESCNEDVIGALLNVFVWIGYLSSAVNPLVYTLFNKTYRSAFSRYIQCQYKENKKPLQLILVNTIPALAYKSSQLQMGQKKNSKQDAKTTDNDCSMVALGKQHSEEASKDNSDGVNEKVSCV

SMILES | activation at 5 µM (5-HT2B receptor) [%] | activation at 10 µM (5-HT2A receptor) [%] | inhibition (5-HT2C receptor) [%] | difference in half-life and intrinsic clearance versus comparator [1] | half-life at 0.2 μM [1] [h] | microsomal CLint at 0.2 μM [1] [µL/min/mg] | CLint scaled at 0.2 μM [1] [mL/min/kg] | intrinsic clearance ratio ([1]; compared with 8-methoxy-1,2,3,4,5,6-hexahydroazepino[4,5-b]indole)
[2H]C([2H])([2H])Oc1ccc2c3c([nH]c2c1)CCN(C)CC3 [Compound 1, 3-methyl-8-(trideuteriomethoxy)-2,4,5,6-tetrahydro-1H-azepino[4,5-b]indole] | -8.3 | 30.4 | 95.5 | differences in half-life and intrinsic clearance | 1.35 | 17.2 | 15.4 | –
[2H]C([2H])([2H])N1CCc2[nH]c3cc(OC)ccc3c2CC1 [Compound 2, 8-methoxy-3-(trideuteriomethyl)-2,4,5,6-tetrahydro-1H-azepino[4,5-b]indole] | -0.4 | 38 | 94.5 | differences in half-life and intrinsic clearance | 1.4 | 16.6 | 14.9 | –
[2H]C([2H])([2H])Oc1ccc2c3c([nH]c2c1)CCN(C([2H])([2H])[2H])CC3 [Compound 3, 8-(trideuteriomethoxy)-3-(trideuteriomethyl)-2,4,5,6-tetrahydro-1H-azepino[4,5-b]indole] | -0.7 | 40 | 95 | differences in half-life and intrinsic clearance | 1.38 | 16.8 | 15.1 | –
[2H]C([2H])([2H])Oc1ccc2c3c([nH]c2c1)CCNCC3 [Compound 163, 8-(trideuteriomethoxy)-1,2,3,4,5,6-hexahydroazepino[4,5-b]indole] | -0.2 | 83 | 97.7 | significant difference in half-life | 1.44 | 16.1 | 14.5 | > 1.15
COc1ccc2c3c([nH]c2c1)CCN(C)CC3 [TBG, 8-methoxy-3-methyl-1,2,3,4,5,6-hexahydroazepino[4,5-b]indole, reference compound] | -0.9 | 38.5 | 94.7 | – | 1.5 | 15.6 | 14 | –
